Results taken from ChEMBL document CHEMBL3792367, “Synthesis and molecular modeling of antimicrobial active fluoroquinolone-pyrazine conjugates with amino acid linkers” (2016).
≈ marks a conversion by molar mass, not a printed value.

Tests used:
[1] = tested on: Staphylococcus aureus; test: Antibacterial activity against Staphylococcus aureus ATCC 25923 after 18 hrs by agar dilution method; format: functional; conditions: ATCC 25923, 18 h
[2] = tested on: Salmonella typhi; test: Antibacterial activity against Salmonella typhi ATCC 19430 after 18 hrs by agar dilution method; format: functional, Salmonella enterica subsp. enterica serovar Typhi; conditions: Salmonella enterica, ATCC 19430, 18 h
[3] = tested on: Streptococcus pyogenes; test: Antibacterial activity against Streptococcus pyogenes ATCC 19615 after 18 hrs by agar dilution method; format: functional; conditions: ATCC 19615, 18 h
[4] = tested on: Pseudomonas aeruginosa; test: Antibacterial activity against Pseudomonas aeruginosa ATCC 27853 after 18 hrs by agar dilution method; format: functional; conditions: ATCC 27853, 18 h

| Structure (SMILES) | MIC [1] [µM] | MIC [2] [µM] | MIC [3] [µM] | MIC [4] [µM] |
| --- | --- | --- | --- | --- |
| O=C(NCCCC(=O)N1CCN(c2cc3c(cc2F)c(=O)c(C(=O)O)cn3C2CC2)CC1)c1cnccn1 | 0.0746 (≈ 0.039 µg/mL) | 2390 (≈ 1250 µg/mL) | 149 (≈ 78 µg/mL) | 597 (≈ 312 µg/mL) |
| C[C@H](NC(=O)c1cnccn1)C(=O)N1CCN(c2cc3c(cc2F)c(=O)c(C(=O)O)cn3C2CC2)CC1 | 2.46 (≈ 1.25 µg/mL) | 2460 (≈ 1250 µg/mL) | 2460 (≈ 1250 µg/mL) | 2460 (≈ 1250 µg/mL) |
| CCn1cc(C(=O)O)c(=O)c2cc(F)c(N3CCN(C(=O)CNC(=O)c4cnccn4)CC3)cc21 | 0.648 (≈ 0.313 µg/mL) | 1300 (≈ 625 µg/mL) | 1300 (≈ 625 µg/mL) | 2490 (≈ 1200 µg/mL) |
| CCn1cc(C(=O)O)c(=O)c2cc(F)c(N3CCN(C(=O)CCNC(=O)c4cnccn4)CC3)cc21 | 0.628 (≈ 0.312 µg/mL) | 2520 (≈ 1250 µg/mL) | 1260 (≈ 625 µg/mL) | 2520 (≈ 1250 µg/mL) |
| CCn1cc(C(=O)O)c(=O)c2cc(F)c(N3CCN(C(=O)CCCNC(=O)c4cnccn4)CC3)cc21 | 2.45 (≈ 1.25 µg/mL) | 76.4 (≈ 39 µg/mL) | 2450 (≈ 1250 µg/mL) | 2450 (≈ 1250 µg/mL) |
| CCn1cc(C(=O)O)c(=O)c2cc(F)c(N3CCN(C(=O)[C@H](C)NC(=O)c4cnccn4)CC3)cc21 | 0.629 (≈ 0.312 µg/mL) | 2520 (≈ 1250 µg/mL) | 1260 (≈ 625 µg/mL) | 2520 (≈ 1250 µg/mL) |
| O=C(NCC(=O)N1CCN(c2cc3c(cc2F)c(=O)c(C(=O)O)cn3C2CC2)CC1)c1cnccn1 | 2.53 (≈ 1.25 µg/mL) | 2530 (≈ 1250 µg/mL) | 2530 (≈ 1250 µg/mL) | 2530 (≈ 1250 µg/mL) |
| O=C(NCCC(=O)N1CCN(c2cc3c(cc2F)c(=O)c(C(=O)O)cn3C2CC2)CC1)c1cnccn1 | 0.307 (≈ 0.156 µg/mL) | 2460 (≈ 1250 µg/mL) | 614 (≈ 312 µg/mL) | 2460 (≈ 1250 µg/mL) |
| O=C(O)c1cn(C2CC2)c2cc(N3CCNCC3)c(F)cc2c1=O [CIPROFLOXACIN] | 3.77 (≈ 1.25 µg/mL) | 7.2 (≈ 2.39 µg/mL) | 3770 (≈ 1250 µg/mL) | 14.5 (≈ 4.8 µg/mL) |
| CCn1cc(C(=O)O)c(=O)c2cc(F)c(N3CCNCC3)cc21 [NORFLOXACIN] | 3.91 (≈ 1.25 µg/mL) | 7.5 (≈ 2.4 µg/mL) | 1960 (≈ 625 µg/mL) | 15 (≈ 4.79 µg/mL) |
